In patent US6822100B2 (Bristol-Myers Squibb Company, priority 2001, dated 2004):

Legend:
[1] = target: T1, human serotonin transporters (Homo sapiens, UniProt P31645); experiment: Serotonin Transporter Binding Assay; conditions: HEK-hSERT cell membranes, 1 nM [3H]-citalopram, Cheng and Prusoff; read-out: SERT Ki
T1 construct: expressed in transfected cells; host or cells: HEK-293 (HEK-hSERT), membrane homogenates
Procedure: HEK-293 cells that stably express human serotonin transporters (HEK-hSERT cells) were grown at 37° C. in 5% CO2 as a monolayer in medium consisting of EMEM supplemented with 10% fetal bovine serum and G418 sulfate (500 μg/ml). To prepare membranes for radioligand binding experiments, cells were rinsed twice with phosphate-buffered saline (138 mM NaCl, 4.1 mM KCl, 5.1 mM Na2PO4, 1.5 mM […], 11.1 mM glucose, pH 7.4). Cells were transferred from plates to polypropylene tubes (16×100 mm), centrifuged at 1,200×g for 5 min and were frozen at −80° C. until assay. Following centrifugation, pellets were resuspended by homogenization in buffer consisting of 50 mM Tris (pH 7.7 at 25° C.), 120 mM NaCl and 5 mM KCl and then centrifuged at 32,000×g for 10 min. Following centrifugation, supernatants were discarded and pellets were resuspended in buffer consisting of 50 mM Tris (pH 7.4 at 25° C.), 150 mM NaCl and 5 mM KCl. Membrane homogenates (200 μl/plate) were incubated with 1 nM [^3H]-citalopram (specific activity=85 Ci/mmol) and increasing concentrations of test compounds for 1 hr at 25° C. in a total volume of 250 μl. The assay buffer consisted of 50 mM Tris (pH 7.4 at 25° C.), 120 mM NaCl and 5 mM KCl (pH 7.4 with conc. HCl). Plates were incubated for 1 hr at 25° C., then filtered through 0.5% PEI treated Whatman GF/B filters using a Brandel cell harvester. Filters were washed three times with 3 ml of ice-cold tris wash buffer. Non-specific binding was defined with 10 μM fluoxetine. Amount of radioligand bound in the presence and absence of competitor was analyzed by plotting (−)log drug concentration versus the amount of radioligand specifically bound. The midpoint of the displacement curve (IC50, nM), signifies the potency. Ki values were calculated using the method of Cheng and Prusoff (1973).

[2] = target: T2, recombinant human dopamine D2L receptors (Homo sapiens, UniProt P14416); experiment: Dopamine Binding Assay; conditions: HEK-D2L cell membranes, 150 pM [3H]-spiperone, Cheng and Prusoff
T2 construct: expressed in transfected cells; host or cells: HEK-293 (HEK-D2L), membrane homogenates
T2 sequence (P14416 whole entry): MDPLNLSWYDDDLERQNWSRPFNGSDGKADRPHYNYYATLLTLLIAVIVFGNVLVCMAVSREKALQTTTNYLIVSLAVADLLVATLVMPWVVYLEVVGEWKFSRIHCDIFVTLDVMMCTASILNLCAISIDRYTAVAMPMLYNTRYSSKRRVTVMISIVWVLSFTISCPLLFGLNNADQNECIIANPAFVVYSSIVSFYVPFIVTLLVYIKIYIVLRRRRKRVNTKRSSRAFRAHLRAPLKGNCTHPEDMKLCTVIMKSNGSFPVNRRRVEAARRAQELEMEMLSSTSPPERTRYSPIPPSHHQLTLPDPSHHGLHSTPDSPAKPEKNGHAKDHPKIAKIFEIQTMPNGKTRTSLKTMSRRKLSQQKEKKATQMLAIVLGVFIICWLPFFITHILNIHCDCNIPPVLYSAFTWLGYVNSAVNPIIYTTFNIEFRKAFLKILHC
Procedure: HEK-293 cells that stably express recombinant human dopamine D2L receptors (HEK-D2L cells) were grown at 37° C. in 5% CO2 as a monolayer in medium consisting of EMEM supplemented with 10% fetal bovine serum and G418 sulfate (500 μg/ml). To prepare membranes for radioligand binding experiments, cells were rinsed twice with phosphate-buffered saline (138 mM NaCl, 4.1 mM KCl, 5.1 mM Na2PO4, 1.5 mM KH2PO2 11.1 mM glucose, pH 7.4), and incubated for 5-10 min. at 4° C. in hypotonic lysis buffer consisting of 10 mM Tris (pH 7.4) and 5 mM EDTA. Cells were transferred from plates to polypropylene tubes (16×100 mm), homogenized and centrifuged at 32,000×g for 20 min. Following centrifugation, pellets were resuspended by homogenization in buffer consisting of 50 mM Tris (pH 7.7 at 25° C.) and 1 mM EDTA. Homogenates were stored at −80° C. until needed. On the day of an experiment, homogenates were thawed then centrifuged at 32,000×g for 20 min. Following centrifugation, supernatants were discarded and pellets were resuspended in assay buffer consisting of 50 mM Tris (pH 7.4 at 25° C.), 1 mM EDTA and 6 mM MgCl2. Membrane homogenates (˜5 μg) were incubated with 150 pM [^3H]-spiperone (Amersham Life Science) and increasing concentrations of test compounds for 1.5 hr at 22° C. in a total volume of 400 μl. Reactions were stopped by addition of ice-cold assay buffer and filtration over glass fiber filters (Whatman GFB, pre-soaked in 0.05% polyethylenimine) using a microtitre format Brandel cell harvester. Filters were washed with 3 ml of ice-cold assay buffer. Non-specific binding was defined with 2 μM (+)butaclamol. Ki values were calculated using the method of Cheng and Prusoff (1973). Protein concentrations were determined by the method of Bradford (1976) with BSA as a standard.

T1 sequence (P31645 whole entry): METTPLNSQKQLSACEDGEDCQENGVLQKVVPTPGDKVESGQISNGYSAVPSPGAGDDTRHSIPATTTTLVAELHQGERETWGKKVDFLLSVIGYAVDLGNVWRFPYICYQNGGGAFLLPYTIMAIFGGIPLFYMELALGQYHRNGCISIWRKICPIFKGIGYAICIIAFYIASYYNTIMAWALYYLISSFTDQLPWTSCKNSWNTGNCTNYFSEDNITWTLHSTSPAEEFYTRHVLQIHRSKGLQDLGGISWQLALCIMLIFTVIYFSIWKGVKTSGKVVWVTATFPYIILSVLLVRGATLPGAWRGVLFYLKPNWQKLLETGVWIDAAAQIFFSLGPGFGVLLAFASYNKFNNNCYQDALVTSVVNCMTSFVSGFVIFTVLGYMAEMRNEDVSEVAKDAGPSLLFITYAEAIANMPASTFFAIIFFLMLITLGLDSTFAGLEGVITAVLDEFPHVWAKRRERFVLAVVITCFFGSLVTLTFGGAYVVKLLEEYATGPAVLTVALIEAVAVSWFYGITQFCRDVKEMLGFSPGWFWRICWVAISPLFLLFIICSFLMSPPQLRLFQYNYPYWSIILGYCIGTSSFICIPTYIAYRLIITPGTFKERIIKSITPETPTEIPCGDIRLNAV

With `N#Cc1ccc2[nH]cc([C@@H]3C[C@H]3CNCCc3ccccc3F)c2c1` (relative stereo) [Example 17, trans-2-[5-Cyanoindol-3-yl]-1-[N-2-(2-fluorophenyl)ethylaminomethyl]-cyclopropane] the Ki [1] was 1 to 10 nM and the Ki [2] was 10 to 100 nM.

`N#Cc1ccc2[nH]cc([C@@H]3C[C@H]3CNCCc3cccc(F)c3)c2c1` (relative stereo) [Example 18, trans-2-[5-Cyanoindol-3-yl]-1-[N-2-(3-fluorophenyl)ethylaminomethyl]-cyclopropane] showed a Ki [1] of 1 to 10 nM and a Ki [2] of 10 to 100 nM.

`N#Cc1ccc2[nH]cc([C@@H]3C[C@H]3CNCCc3ccc(F)cc3)c2c1` (relative stereo) [Example 19, trans-2-[5-Cyanoindol-3-yl]-1-[N-2-(4-fluorophenyl)ethylaminomethyl]-cyclopropane] showed a Ki [1] of 1 to 10 nM and a Ki [2] of 10 to 100 nM.

`N#Cc1ccc2[nH]cc([C@@H]3C[C@H]3CNCCc3cccnc3)c2c1` (relative stereo) [Example 20, trans-2-[5-Cyanoindol-3-yl]-1-[N-2-(3-pyridyl)ethylaminomethyl]-cyclopropane] showed a Ki [1] of 1 to 10 nM and a Ki [2] greater than 1000 nM.

Molecule `N#Cc1ccc2[nH]cc([C@@H]3C[C@H]3CNCCc3c[nH]cn3)c2c1` (relative stereo) [Example 23, trans-2-[5-Cyanoindol-3-yl]-1-[N-2-(4-imidazolyl)ethylaminomethyl]-cyclopropane] has a Ki [1] of 10 to 100 nM and a Ki [2] of 10 to 100 nM.

Molecule `N#Cc1ccc2[nH]cc([C@@H]3C[C@H]3CNCCc3cccs3)c2c1` (relative stereo) [Example 25] has a Ki [1] of 1 to 10 nM and a Ki [2] of 100 to 1000 nM.

`N#Cc1ccc2[nH]cc([C@@H]3C[C@H]3CNCCc3c[nH]c4ccccc34)c2c1` (relative stereo) [Example 27, trans-2-[5-Cyanoindol-3-yl]-1-[N-2-(3-indolyl)ethylaminomethyl]-cyclopropane] gave a Ki [1] of 1 to 10 nM and a Ki [2] of 10 to 100 nM.

For `N#Cc1ccc2[nH]cc([C@@H]3C[C@H]3CNC3CCCCC3)c2c1` (relative stereo) [Example 29, trans-2-[5-Cyanoindol-3-yl]-1-[N-cyclohexylaminomethyl]-cyclopropane], the Ki [1] was 10 to 100 nM and the Ki [2] was 10 to 100 nM.

With `N#Cc1ccc2[nH]cc([C@@H]3C[C@H]3CN3CCc4ccccc4C3)c2c1` (relative stereo) [Example 37, trans-2-[5-Cyanoindol-3-yl]-1-[1,2,3,4-tetrahydro-1H-isoquinolin-2-yl-methyl]-cyclopropane] the Ki [1] was 10 to 100 nM and the Ki [2] was 10 to 100 nM.

In the case of `CN(CCc1ccccc1)C[C@@H]1C[C@H]1c1c[nH]c2ccc(C#N)cc12` (relative stereo) [Example 39, trans-2-[5-Cyanoindol-3-yl]-1-[N,N-methyl-phenylethylaminomethyl]-cyclopropane], the Ki [1] is reported as 1 to 10 nM and the Ki [2] is reported as 10 to 100 nM.

In the case of `N#Cc1ccc2[nH]cc([C@@H]3C[C@H]3CNCCc3ccccc3)c2c1` (relative stereo) [Example 40], the Ki [1] is reported as 1 to 10 nM and the Ki [2] is reported as 10 to 100 nM.

Work on `COc1ccccc1CCNC[C@@H]1C[C@H]1c1c[nH]c2ccc(C#N)cc12` (relative stereo) [Example 41] yielded a Ki [1] of 1 to 10 nM and a Ki [2] of 10 to 100 nM.

For `COc1cccc(CCNC[C@@H]2C[C@H]2c2c[nH]c3ccc(C#N)cc23)c1` (relative stereo) [Example 42], the Ki [1] was 1 to 10 nM and the Ki [2] was 10 to 100 nM.

For `COc1ccc(CCNC[C@@H]2C[C@H]2c2c[nH]c3ccc(C#N)cc23)cc1` (relative stereo) [Example 43], the Ki [1] was 1 to 10 nM and the Ki [2] was 10 to 100 nM.

For `N#Cc1ccc2[nH]cc([C@@H]3C[C@H]3CNCCOc3ccccc3)c2c1` (relative stereo) [Example 44], the Ki [1] was 1 to 10 nM and the Ki [2] was 1 to 10 nM.

`CCCNC[C@@H]1C[C@H]1c1c[nH]c2ccc(C#N)cc12` (relative stereo) [Example 45] gave a Ki [1] of 10 to 100 nM and a Ki [2] of 100 to 1000 nM.

`CCN(CC)C[C@@H]1C[C@H]1c1c[nH]c2ccc(C#N)cc12` (relative stereo) [Example 48] was tested, and the Ki [1] was 1 to 10 nM and the Ki [2] was 100 to 1000 nM.

With `Fc1ccc2[nH]cc([C@@H]3C[C@H]3CNCc3ccccc3)c2c1` (relative stereo) [Example 49, trans-1-(N-Benzlyaminomethyl)-2-[5-fluoroindol-3-yl]-cyclopropane] the Ki [1] was 10 to 100 nM and the Ki [2] was 100 to 1000 nM.

Molecule `Fc1ccc2[nH]cc([C@@H]3C[C@H]3CN3CCc4ccccc4C3)c2c1` (relative stereo) [Example 76, trans-1-[1,2,3,4-tetrahydro-1H-isoquinolin-2-yl-methyl]-2-[5-fluoroindol-3-yl]-cyclopropane] has a Ki [1] of 10 to 100 nM and a Ki [2] of 10 to 100 nM.

With `CN(CCc1ccccc1)C[C@@H]1C[C@H]1c1c[nH]c2ccc(F)cc12` (relative stereo) [Example 78, trans-2-[5-Fluoroindol-3-yl]-1-[N,N-methyl-phenylethylaminomethyl]-cyclopropane] the Ki [1] was 1 to 10 nM and the Ki [2] was 100 to 1000 nM.

For `COc1ccccc1CCNC[C@@H]1C[C@H]1c1c[nH]c2ccc(F)cc12` (relative stereo) [Example 80], the Ki [1] was 10 to 100 nM and the Ki [2] was 10 to 100 nM.

For `COc1cccc(CCNC[C@@H]2C[C@H]2c2c[nH]c3ccc(F)cc23)c1` (relative stereo) [Example 81], the Ki [1] was 10 to 100 nM and the Ki [2] was 10 to 100 nM.

`COc1ccc(CCNC[C@@H]2C[C@H]2c2c[nH]c3ccc(F)cc23)cc1` (relative stereo) [Example 82] was tested, and the Ki [1] was 10 to 100 nM and the Ki [2] was 10 to 100 nM.

In the case of `Fc1ccc2[nH]cc([C@@H]3C[C@H]3CNCCOc3ccccc3)c2c1` (relative stereo) [Example 83], the Ki [1] is reported as 1 to 10 nM and the Ki [2] is reported as 1 to 10 nM.

Work on `CCN(CC)C[C@@H]1C[C@H]1c1c[nH]c2ccc(F)cc12` (relative stereo) [Example 86] yielded a Ki [1] of 10 to 100 nM and a Ki [2] of 100 to 1000 nM.

For `CCOC(=O)NCCN(C)C[C@@H]1C[C@H]1c1c[nH]c2ccc(C#N)cc12` (relative stereo) [Example 87, trans-2-[5-Cyanoindol-3-yl]-1-[N,N-methyl-2-amino(ethylcarbamoyl)ethylaminomethyl]-cyclopropane], the Ki [1] was 10 to 100 nM and the Ki [2] was 100 to 1000 nM.

`CCCOC(=O)NCCN(C)C[C@@H]1C[C@H]1c1c[nH]c2ccc(C#N)cc12` (relative stereo) [Example 88, trans-2-[5-Cyanoindol-3-yl]-1-[N,N-methyl-2-amino(propylcarbamoyl)ethylaminomethyl]-cyclopropane] was tested, and the Ki [1] was 1 to 10 nM and the Ki [2] was greater than 1000 nM.

For `COC(=O)NCCCN(C)C[C@@H]1C[C@H]1c1c[nH]c2ccc(C#N)cc12` (relative stereo) [Example 89, trans-2-[5-Cyanoindol-3-yl]-1-[N,N-methyl-2-amino(methylcarbamoyl)propylaminomethyl]-cyclopropane], the Ki [1] was 1 to 10 nM and the Ki [2] was greater than 1000 nM.

`CCOC(=O)NCCCN(C)C[C@@H]1C[C@H]1c1c[nH]c2ccc(C#N)cc12` (relative stereo) [Example 90, trans-2-[5-Cyanoindol-3-yl]-1-[N,N-methyl-2-amino(ethylcarbamoyl)propylaminomethyl]-cyclopropane] showed a Ki [1] of 1 to 10 nM and a Ki [2] of 100 to 1000 nM.

With `CCCOC(=O)NCCCN(C)C[C@@H]1C[C@H]1c1c[nH]c2ccc(C#N)cc12` (relative stereo) [Example 91, trans-2-[5-Cyanoindol-3-yl]-1-[N,N-methyl-2-amino(propylcarbamoyl)propylaminomethyl]-cyclopropane] the Ki [1] was 1 to 10 nM and the Ki [2] was 10 to 100 nM.
